Here are results for 16 compounds from patent EP4806900A2, “RAS INHIBITORS” (Revolution Medicines, Inc., priority 2019, dated 2021).

Where two headings read alike, the source gives them in different places.

The test system of one data set is SW1573. The following applies: Canon et al., Nature 575:217-223 (2019); cited from earlier work.
The test system of data set [1] is NCI-H358 KRASG12C xenograft. Put plainly: In vivo NSCLC K-Ras G12C xenograft model (tumor growth). Also noted: species or system BALB/c nude mice.
For a further data set, the system named is NSCLC (KRAS G12C) model. Put plainly: NSCLC (KRAS G12C) xenograft model, combinations. Format: in vivo, mice.
[2] abbreviates: single agents: Compound B 50 mg/kg intravenous twice weekly, cobimetinib […] daily oral.

Where the note is “from CC(C)[Si](Oc1cc(C[C@H](NC(=O)OC(C)(C)C)C(=O)N2CCC[C@@H](C(=O)O)N2)cc(-c2ccc3[nH]c(I)c(CC(C)(C)CO)c3c2)c1)(C(C)C)C(C)C, ester bond, EDCI/HOBt/DIPEA, DCM, 22.8 mM, 25.0 °C, 16.0 h”, `CC(C)[Si](Oc1cc2cc(c1)-c1ccc3[nH]c(I)c(c3c1)CC(C)(C)COC(=O)[C@@H]1CCCN(N1)C(=O)[C@@H](NC(=O)OC(C)(C)C)C2)(C(C)C)C(C)C` registered a ring closure, yield of all isomers of 50%.

With `CC1(C)COC(=O)[C@@H]2CCCN(N2)C(=O)[C@@H](NC(=O)OC(C)(C)C)Cc2cccc(c2)-c2ccc3[nH]c(I)c(c3c2)C1`, the ring closure, yield of all isomers (from CC(C)(CO)Cc1c(I)[nH]c2ccc(-c3cccc(C[C@H](NC(=O)OC(C)(C)C)C(=O)N4CCC[C@@H](C(=O)O)N4)c3)cc12, ester bond, EDCI/HOBt/DIPEA, DCM, 12.8 mM, 0.0 °C, 16.0 h) came out at 79.8%.

With `CCn1c(-c2ccccc2COC)c2c3cc(ccc31)-c1cc(cc([N+](=O)[O-])c1)C[C@H](NC(=O)OC(C)(C)C)C(=O)N1CCC[C@H](N1)C(=O)OCC(C)(C)C2`, the ring closure, yield of all isomers (from CCn1c(-c2ccccc2COC)c(CC(C)(C)CO)c2cc(-c3cc(C[C@H](NC(=O)OC(C)(C)C)C(=O)N4CCC[C@@H](C(=O)O)N4)cc([N+](=O)[O-])c3)ccc21, ester bond, EDCI/HOBt/DIPEA, DCM, 6.4 mM, 25.0 °C, 16.0 h) worked out at 73%.

The compound `CCn1c(-c2cccnc2[C@H](C)OC)c2c3cc(ccc31)-c1cc(cc(C(F)F)c1)C[C@H](NC(=O)OC(C)(C)C)C(=O)N1CCC[C@H](N1)C(=O)OCC(C)(C)C2` gave a ring closure, yield of all isomers (from CCn1c(-c2cccnc2[C@H](C)OC)c(CC(C)(C)CO)c2cc(-c3cc(C[C@H](NC(=O)OC(C)(C)C)C(=O)N4CCC[C@@H](C(=O)O)N4)cc(C(F)F)c3)ccc21, ester bond, EDCI/HOBt/DIPEA, DCM, 16.0 h) of 51%.

Regarding `CCn1c(-c2cccnc2[C@H](C)OC)c2c3cc(ccc31)-c1cc(cc(O[Si](C(C)C)(C(C)C)C(C)C)c1)C[C@H](NC(=O)OC(C)(C)C)C(=O)N1CCC[C@H](N1)C(=O)OCC(C)(C)C2`, under “from CCn1c(-c2cccnc2[C@H](C)OC)c(CC(C)(C)CO)c2cc(-c3cc(C[C@H](NC(=O)OC(C)(C)C)C(=O)N4CCC[C@@H](C(=O)O)N4)cc(O[Si](C(C)C)(C(C)C)C(C)C)c3)ccc21, ester bond, EDCI/HOBt/DIPEA, DCM, 15.3 mM, 25.0 °C, 16.0 h”, the ring closure, yield of all isomers amounted to 42%.

`CCn1c(-c2cccnc2[C@H](C)OC)c2c3cc(ccc31)-c1nc(co1)C[C@H](NC(=O)OC(C)(C)C)C(=O)N1CCC[C@H](N1)C(=O)OCC(C)(C)C2` yielded a ring closure, yield of all isomers (from CCn1c(-c2cccnc2[C@H](C)OC)c(CC(C)(C)COC(=O)[C@@H]2CCCN(C(=O)[C@H](Cc3coc(Br)n3)NC(=O)OC(C)(C)C)N2)c2cc(B3OC(C)(C)C(C)(C)O3)ccc21, cc_pd bond, XPhos Pd G3, dioxane, […], 70.0 °C, 4.0 h) of 56%.

As for `CCn1c(-c2cccnc2[C@H](C)OC)c2c3cc(ccc31)-c1nc(nn1C)C[C@H](NC(=O)OC(C)(C)C)C(=O)N1CCC[C@H](N1)C(=O)OCC(C)(C)C2`, the ring closure, yield of all isomers (from CCn1c(-c2cccnc2[C@H](C)OC)c(CC(C)(C)COC(=O)[C@@H]2CCCN(C(=O)[C@H](Cc3nc(Br)n(C)n3)NC(=O)OC(C)(C)C)N2)c2cc(B3OC(C)(C)C(C)(C)O3)ccc21, cc_pd bond, XPhos Pd G3, dioxane, 71.7 mM, 75.0 °C, 3.0 h) worked out at 56.8%.

In turn, `CCn1c(-c2cccnc2[C@H](C)OC)c2c3cc(ccc31)-c1cnc(o1)C[C@H](NC(=O)OC(C)(C)C)C(=O)N1CCC[C@H](N1)C(=O)OCC(C)(C)C2` gave a ring closure, yield of all isomers (from CCn1c(-c2cccnc2[C@H](C)OC)c(CC(C)(C)CO)c2cc(-c3cnc(C[C@H](NC(=O)OC(C)(C)C)C(=O)N4CCC[C@@H](C(=O)O)N4)o3)ccc21, ester bond, EDCI/HOBt, DIPEA, DCM, 13.7 mM, 0.0 °C, 2.0 h) of 56.4%.

Where the note is “from CCn1c(-c2cccnc2[C@H](C)OC)c(CC(C)(C)CO)c2cc(N3CCC[C@@H](C[C@H](NC(=O)OCc4ccccc4)C(=O)N4CCC[C@@H](C(=O)O)N4)C3)ccc21, ester bond, EDCI/HOBt/DIPEA, DCM, 36.7 mM, 25.0 °C, 6.0 h”, `CCn1c(-c2cccnc2[C@H](C)OC)c2c3cc(ccc31)N1CCC[C@@H](C[C@H](NC(=O)OCc3ccccc3)C(=O)N3CCC[C@H](N3)C(=O)OCC(C)(C)C2)C1` displayed a ring closure, yield of all isomers of 36%.

Under “from CCn1c(-c2cccnc2[C@H](C)OC)c(CC(C)(C)CO)c2cc(N3CCO[C@@H](C[C@H](NC(=O)OCc4ccccc4)C(=O)N4CCC[C@@H](C(=O)O)N4)C3)ccc21, ester bond, EDCI/HOBt/DIPEA, DCM, 12.75 mM, 25.0 °C, 16.0 h”, `CCn1c(-c2cccnc2[C@H](C)OC)c2c3cc(ccc31)N1CCO[C@@H](C[C@H](NC(=O)OCc3ccccc3)C(=O)N3CCC[C@H](N3)C(=O)OCC(C)(C)C2)C1` yielded a ring closure, yield of all isomers of 66%.

`CCn1c(-c2cccnc2[C@H](C)OC)c2c3nc(ccc31)-c1csc(n1)C[C@H](NC(=O)OC(C)(C)C)C(=O)N1CCC[C@H](N1)C(=O)OCC(C)(C)C2`: under “from CCn1c(-c2cccnc2[C@H](C)OC)c(CC(C)(C)CO)c2nc(-c3csc(C[C@H](NC(=O)OC(C)(C)C)C(=O)N4CCC[C@@H](C(=O)O)N4)n3)ccc21, ester bond, EDCI HCl/HOBt/DIPEA, DCM, 6.4 mM, 25.0 °C, 16.0 h”, the ring closure, yield of all isomers was 43%.

Take `CO[C@@H](C)c1ncc(N2CCN(C(=O)OCc3ccccc3)CC2)cc1-c1c2c3cc(ccc3n1CC(F)(F)F)-c1cccc(c1)C[C@H](NC(=O)OC(C)(C)C)C(=O)N1CCC[C@H](N1)C(=O)OCC(C)(C)C2`: the ring closure, yield of all isomers (from CO[C@@H](C)c1ncc(N2CCN(C(=O)OCc3ccccc3)CC2)cc1-c1c(CC(C)(C)CO)c2cc(-c3cccc(C[C@H](NC(=O)OC(C)(C)C)C(=O)N4CCC[C@@H](C(=O)O)N4)c3)ccc2n1CC(F)(F)F, ester bond, EDCI/HOBt/DIPEA, DCM, 9.87 mM, 25.0 °C, 12.0 h) was found to be 67.9%.

`CO[C@@H](C)c1ncccc1-c1c2c3cc(ccc3n1CC(F)(F)F)N1CCO[C@@H](C[C@H](NC(=O)OCc3ccccc3)C(=O)N3CCC[C@H](N3)C(=O)OCC(C)(C)C2)C1`: the ring closure, yield of all isomers (from CO[C@@H](C)c1ncccc1-c1c(CC(C)(C)CO)c2cc(N3CCO[C@@H](C[C@H](NC(=O)OCc4ccccc4)C(=O)N4CCC[C@@H](C(=O)O)N4)C3)ccc2n1CC(F)(F)F, ester bond, EDCI/HOBt/DIPEA, DCM, 11.25 mM, 16.0 h) stood at 74%.

As for `C=CC(=O)N1CCN(c2nc(=O)n(-c3c(C)ccnc3C(C)C)c3nc(-c4c(O)cccc4F)c(F)cc23)[C@@H](C)C1` [AMG510], in the data set with SW1573, the “sensitivity of cell line” value is “insensitive”.

On to `Cc1nc(N2CCC3(CC2)CO[C@@H](C)[C@H]3N)c(CO)nc1-c1cccc(Cl)c1Cl` [RMC-4550], for which the “mice with tumor regression (greater than 10% reduction of tumor volume at end of study)” value in data set [1] (single agents: Compound C 60 mg/kg intravenous once weekly, SHP2 inhibitor (RMC-4550) 30 mg/kg daily oral) is recorded as 5 out of 10.

For the compound `O=C(c1ccc(F)c(F)c1Nc1ccc(I)cc1F)N1CC(O)([C@@H]2CCCCN2)C1` [cobimetinib], in data set [1] (setting [2]), the “effect on tumor growth” value is on record as “tumor growth inhibition” and the “mice with tumor regression (greater than 10% reduction of tumor volume at end of study)” value is “no tumor regressions”. Further, the “tumor response, single agent (FIG. 3A)” value with NSCLC (KRAS G12C) model (Compound B 50 mg/kg intermittent intravenous or cobimetinib […] daily oral, alone) is “tumor growth inhibition”. In addition, the “tumor regressions at end of study, single agent group (FIG. 3B)” value with NSCLC (KRAS G12C) model (each single agent) was “no tumor regressions”.
